The record followed here is US20150283120A1, “ANTIBIOTIC METHODS AND COMPOSITIONS FOR BACTERIA INFECTIONS” (THE UNIVERSITY OF CHICAGO, priority 2012, published 2015).

Assay [1] relates to MRSA strain USA300 Pvra-lux. Type of assay: cell-based, Staphylococcus aureus. The conditions noted are these: compound 10 μM + oxacillin 2 μg/mL; for RG avg (relative growth): ratio of OD600 to oxacillin alone, four runs. The method, then:
(§1) In the secondary screen each microtiter plate contained either cells in TSB alone (16 replicates), cells with oxacillin (2 μg/mL, 31 replicates), or cells with test compound and oxacillin (2 μg/mL, 49 wells). Each compound was assayed in four separate biological replicates.
(§2) All compounds classified in the primary screen as synergists that were vraSR-stimulating or -repressing (as shown in Table 8) were screened in a secondary assay for their effects on both growth and Pvra::lux induction by oxacillin. […] Each compound was tested four separate times at 10 μM in the presence of oxacillin (2 μg/mL) and luminescence was measured every 15 minutes. Relative growth (RG) and relative luminescence (RL) was calculated as the ratio between the OD600 or max LU value in the presence of compound and oxacillin over the average from pooled control values obtained from the same plate. […] Compounds that produced an average RG (ratio of the OD600 of the culture grown with test compound combined with oxacillin to that of oxacillin alone) of <0.8 were classified as oxacillin synergists or potentiators. The relative luminescence (RL) was the ratio of the LU produced in the presence of the test compound combined with oxacillin to that produced by oxacillin alone. Compounds were classified as “vraSR repressors” (mean RL of <0.8), “vraSR stimulators”, (mean RL>1.2), and “vraSR neutral” (mean RL between 0.80-1.2). […] In contrast, 34 compounds had no effect on growth in the presence of oxacillin (“un” in the OD600 category). Among the oxacillin potentiators, there were 2 vraSR stimulators, 3 vraSR neutral compounds and 10 vraSR repressors.

Assay [2] concerns vraSR transcription (Pvra::lux). The assay is classed as cell-based, Staphylococcus aureus. The settings on record: compound 10 μM + oxacillin 2 μg/mL; for RL avg (relative luminescence): ratio of LU to oxacillin alone, four runs. As for the experimental part: as §1, §2

Structures can show the parent of a compound that is named as a salt.

On to `CCN(CC)CCOc1ccc(C(=C(Cl)c2ccccc2)c2ccccc2)cc1` (racemic) [Clomiphene citrate (Z,E), 2-(4-(2-chloro-1,2-diphenylethenyl)phenoxy)-N,N-diethyl-ethanamine], for which, in assay [1], the OD600 category entry is given as “inhibited (of <0.8 were classified as oxacillin synergists or potentiators)” and the “RG avg (relative growth)” value is given as 0.68. Further, in assay [2], the “Effect on vraSR transcription” value is “repress (“vraSR repressors” (mean RL of <0.8))” and the “RL avg (relative luminescence)” value was found to be 0.39.

In the case of `COc1ccc(-c2cc(=O)c3c(O)cc(O)cc3o2)cc1` [Acacetin], in assay [1], the OD600 category entry is “un (no effect on growth in the presence of oxacillin (“un” in the OD600 category))” and the “RG avg (relative growth)” value stood at 0.91. Moreover, in assay [2], the “Effect on vraSR transcription” value is “neutral (“vraSR neutral” (mean RL between 0.80-1.2))” and the “RL avg (relative luminescence)” value stood at 0.88.

With `CC1(C)S[C@@H]2[C@H](NC(=O)[C@H](NC(=O)N3CCNC3=O)c3ccccc3)C(=O)N2[C@H]1C(=O)O` [Azlocillin sodium salt], in assay [1], the OD600 category entry is listed as “un (no effect on growth in the presence of oxacillin (“un” in the OD600 category))” and the “RG avg (relative growth)” value is on record as 0.91. In assay [2], the “Effect on vraSR transcription” value is “neutral (“vraSR neutral” (mean RL between 0.80-1.2))” and the “RL avg (relative luminescence)” value was 0.78.

Regarding `CCC(=O)OCC(=O)[C@@]1(OC(=O)CC)[C@@H](C)C[C@H]2[C@@H]3CCC4=CC(=O)C=C[C@]4(C)[C@@]3(Cl)[C@@H](O)C[C@@]21C` [Beclomethasone dipropionate], in assay [1], the OD600 category result is on record as “un (no effect on growth in the presence of oxacillin (“un” in the OD600 category))” and the “RG avg (relative growth)” value worked out at 0.96. Also, in assay [2], the “Effect on vraSR transcription” value is given as “neutral (“vraSR neutral” (mean RL between 0.80-1.2))” and the “RL avg (relative luminescence)” value stood at 0.96.

In the case of `NS(=O)(=O)c1cc2c(cc1Cl)N=C(CSCc1ccccc1)NS2(=O)=O` [Benzthiazide], in assay [1], the OD600 category result is recorded as “un (no effect on growth in the presence of oxacillin (“un” in the OD600 category))” and the “RG avg (relative growth)” value is recorded as 1.01. In assay [2], the “Effect on vraSR transcription” value is listed as “neutral (“vraSR neutral” (mean RL between 0.80-1.2))” and the “RL avg (relative luminescence)” value came out at 0.95.

In the case of `C=C(C)[C@@H]1CC[C@]2(C(=O)O)CC[C@]3(C)[C@H](CC[C@@H]4[C@@]5(C)CC[C@H](O)C(C)(C)[C@@H]5CC[C@]43C)[C@@H]12` [Betulinic acid], in assay [1], the OD600 category entry is “un (no effect on growth in the presence of oxacillin (“un” in the OD600 category))” and the “RG avg (relative growth)” value came to 0.87. In assay [2], the “Effect on vraSR transcription” value is “neutral (“vraSR neutral” (mean RL between 0.80-1.2))” and the “RL avg (relative luminescence)” value is on record as 0.83.

As for `CCCC(=O)Nc1ncnc2c1ncn2[C@@H]1O[C@@H]2COP(=O)(O)O[C@H]2[C@H]1OC(=O)CCC` [Bucladesine sodium salt], in assay [1], the OD600 category result is given as “un (no effect on growth in the presence of oxacillin (“un” in the OD600 category))” and the “RG avg (relative growth)” value came to 1.02. Moreover, in assay [2], the “Effect on vraSR transcription” value is “neutral (“vraSR neutral” (mean RL between 0.80-1.2))” and the “RL avg (relative luminescence)” value was 0.94.

`CCCCN(CCCC)CCCOC(=O)c1ccc(N)cc1` [Butacaine]: in assay [1], the OD600 category entry was “un (no effect on growth in the presence of oxacillin (“un” in the OD600 category))” and the “RG avg (relative growth)” value came to 1.03. In assay [2], the “Effect on vraSR transcription” value is on record as “neutral (“vraSR neutral” (mean RL between 0.80-1.2))” and the “RL avg (relative luminescence)” value turned out to be 0.98.

For `C=C1CC[C@H](O)C/C1=C/C=C1\CCC[C@]2(C)[C@@H]([C@H](C)/C=C/[C@H](C)C(C)C)CC[C@@H]12` [Calciferol], in assay [1], the OD600 category entry is recorded as “un (no effect on growth in the presence of oxacillin (“un” in the OD600 category))” and the “RG avg (relative growth)” value is on record as 0.96. In assay [2], the “Effect on vraSR transcription” value is listed as “neutral (“vraSR neutral” (mean RL between 0.80-1.2))” and the “RL avg (relative luminescence)” value is 0.88.
